Laboratory results published in patent US8959984B2, “Proteome-wide quantification of small molecule binding to cellular target proteins” (priority 2007, dated 2015).
pKd, pKi: −log10 of the molar value. Read-outs that look alike come from different tables or passages of the source.

Assays:
[1] = target: T1, GLO1 (IPI00220766) (Homo sapiens, UniProt Q04760); assay: binding to VI16742 beads (HeLa lysate, SILAC MS)
T1 construct: endogenous in cells; host or cells: HeLa S3
T1 sequence (Q04760 2-184 limits assumed): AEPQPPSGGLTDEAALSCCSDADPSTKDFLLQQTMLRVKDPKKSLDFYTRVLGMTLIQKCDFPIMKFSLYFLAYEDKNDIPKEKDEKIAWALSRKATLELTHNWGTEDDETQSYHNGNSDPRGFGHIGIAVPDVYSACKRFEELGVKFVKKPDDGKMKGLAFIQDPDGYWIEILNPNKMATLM
Procedure, shortened: (§1)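 Kinases were captured on a resin carrying the broadly selective pyrido[2,3-d]pyrimidine-based kinase inhibitor. Proteins specifically retained by the inhibitor resin were scored as binders.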

[2] = target: T2, DPH5 (IPI00375824) (Homo sapiens, UniProt Q9H2P9); assay: binding to VI16742 beads (HeLa lysate, SILAC MS)
T2 construct: endogenous in cells; host or cells: HeLa S3
T2 sequence (Q9H2P9 1-285): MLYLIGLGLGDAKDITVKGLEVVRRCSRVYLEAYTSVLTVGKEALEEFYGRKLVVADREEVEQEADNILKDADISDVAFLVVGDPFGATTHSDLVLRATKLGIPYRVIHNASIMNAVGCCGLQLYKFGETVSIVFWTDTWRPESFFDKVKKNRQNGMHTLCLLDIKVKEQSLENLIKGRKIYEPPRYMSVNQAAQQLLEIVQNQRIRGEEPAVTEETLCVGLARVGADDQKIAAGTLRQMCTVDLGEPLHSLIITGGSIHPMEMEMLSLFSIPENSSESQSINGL
Procedure, shortened: as §1

[3] = target: T3, RPSA (IPI00413108) (Homo sapiens, UniProt P08865); assay: binding to VI16742 beads (HeLa lysate, SILAC MS)
T3 construct: endogenous in cells; host or cells: HeLa S3
Procedure, shortened: as §1

[4] = target: T4, XTP3TPA (IPI00012197) (Homo sapiens, UniProt Q9H773); assay: binding to VI16742 beads (HeLa lysate, SILAC MS)
T4 construct: endogenous in cells; host or cells: HeLa S3
T4 sequence (Q9H773 1-170): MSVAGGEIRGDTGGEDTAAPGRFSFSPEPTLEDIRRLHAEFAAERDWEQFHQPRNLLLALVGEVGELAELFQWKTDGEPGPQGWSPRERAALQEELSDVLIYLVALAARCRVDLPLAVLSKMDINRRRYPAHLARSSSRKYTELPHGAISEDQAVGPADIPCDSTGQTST
Procedure, shortened: as §1

[5] = target: T5, RIOK2 (Homo sapiens, UniProt Q9BVS4); assay: binding to immobilized V16742 (IVA1/IVA2, HeLa lysate, MS)
T5 construct: endogenous in cells; host or cells: HeLa S3

[6] = target: T6, MASTL (Homo sapiens, UniProt Q96GX5); assay: as above
T6 construct: endogenous in cells; host or cells: HeLa S3
T6 sequence (Q96GX5 1-879): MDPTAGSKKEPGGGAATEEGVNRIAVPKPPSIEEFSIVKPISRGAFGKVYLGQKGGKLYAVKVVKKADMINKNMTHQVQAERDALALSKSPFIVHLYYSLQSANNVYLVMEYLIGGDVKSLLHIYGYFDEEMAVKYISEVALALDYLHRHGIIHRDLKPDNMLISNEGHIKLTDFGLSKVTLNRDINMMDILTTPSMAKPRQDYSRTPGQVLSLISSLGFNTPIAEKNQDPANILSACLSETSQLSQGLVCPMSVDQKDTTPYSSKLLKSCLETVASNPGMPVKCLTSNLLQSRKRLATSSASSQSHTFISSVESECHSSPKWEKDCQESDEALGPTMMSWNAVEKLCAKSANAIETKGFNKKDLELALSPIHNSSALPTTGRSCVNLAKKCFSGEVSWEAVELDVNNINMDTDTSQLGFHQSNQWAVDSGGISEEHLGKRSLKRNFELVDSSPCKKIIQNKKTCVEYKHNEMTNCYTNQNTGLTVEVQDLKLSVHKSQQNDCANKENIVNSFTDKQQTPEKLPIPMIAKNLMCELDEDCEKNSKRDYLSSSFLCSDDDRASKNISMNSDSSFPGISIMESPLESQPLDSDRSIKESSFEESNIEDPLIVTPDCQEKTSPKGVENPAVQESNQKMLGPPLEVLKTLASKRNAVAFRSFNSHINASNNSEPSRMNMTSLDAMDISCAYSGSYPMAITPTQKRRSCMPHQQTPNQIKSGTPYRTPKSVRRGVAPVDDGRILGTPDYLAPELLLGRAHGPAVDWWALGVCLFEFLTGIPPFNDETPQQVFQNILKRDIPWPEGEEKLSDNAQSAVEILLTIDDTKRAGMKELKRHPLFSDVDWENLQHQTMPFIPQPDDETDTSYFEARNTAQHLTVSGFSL

[7] = control beads vs first incubation

T5 sequence (Q9BVS4 whole entry): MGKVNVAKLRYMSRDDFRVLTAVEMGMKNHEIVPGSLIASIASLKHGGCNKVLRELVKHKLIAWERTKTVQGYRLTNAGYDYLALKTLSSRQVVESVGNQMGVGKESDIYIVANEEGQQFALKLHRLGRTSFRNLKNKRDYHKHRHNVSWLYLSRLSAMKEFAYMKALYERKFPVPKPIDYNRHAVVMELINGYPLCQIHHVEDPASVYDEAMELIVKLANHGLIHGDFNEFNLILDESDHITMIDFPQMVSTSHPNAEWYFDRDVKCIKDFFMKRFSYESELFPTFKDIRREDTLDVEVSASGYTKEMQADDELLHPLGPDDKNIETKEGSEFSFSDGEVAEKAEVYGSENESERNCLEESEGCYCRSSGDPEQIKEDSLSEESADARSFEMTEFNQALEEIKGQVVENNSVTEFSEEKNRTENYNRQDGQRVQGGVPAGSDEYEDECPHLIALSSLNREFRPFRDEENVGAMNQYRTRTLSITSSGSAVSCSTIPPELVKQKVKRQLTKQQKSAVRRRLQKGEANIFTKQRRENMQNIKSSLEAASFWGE

`CC(C)n1c(=O)ccc2cnc(Nc3ccc(OCCN)cc3)nc21` [V16742] was tested, and the “r (5 h/2.5 h INC. TIME)” value ([1]; 5 h vs 2.5 h incubation time) was 1.39, the “rAVERAGE (CTRL/1 INC)” value [1, 7] was 0.07 and the pKi ([1]; immobilized VI16742) was 3.88. For the same compound, the “rAVERAGE (2 INC/1 INC)” value ([1]; second vs first incubation) was 0.72, the “r (5 h/2.5 h INC. TIME)” value ([2]; 5 h vs 2.5 h incubation time) was 2.72 and the “rAVERAGE (CTRL/1 INC)” value [2, 7] was 0.03. The pKi ([2]; immobilized VI16742) was 3.68, the “rAVERAGE (2 INC/1 INC)” value ([2]; second vs first incubation) was 0.80 and the “r (3 MG/1 MG LYSATE)” value ([3]; 3 mg vs 1 mg lysate) was 3.92. The “r (5 h/2.5 h INC. TIME)” value ([3]; 5 h vs 2.5 h incubation time) was 2.26, the “rAVERAGE (CTRL/1 INC)” value [3, 7] was 0.11 and the pKi ([3]; immobilized VI16742) was 3.73. For the same compound, the “rAVERAGE (2 INC/1 INC)” value ([3]; second vs first incubation) was 0.78, the “r (3 MG/1 MG LYSATE)” value ([4]; 3 mg vs 1 mg lysate) was 3.39 and the “r (5 h/2.5 h INC. TIME)” value ([4]; 5 h vs 2.5 h incubation time) was 1.04. The “rAVERAGE (CTRL/1 INC)” value [4, 7] was 0.08, the pKi ([4]; immobilized VI16742) was 3.80 and the “rAVERAGE (2 INC/1 INC)” value ([4]; second vs first incubation) was 0.75. The “Percent bound at various 16742 conc” value ([5]; Experiment 1, 8.74 μM 16742) was 11.61%, the “Percent bound at various 16742 conc” value ([5]; Experiment 1, 52 μM 16742) was 58.06% and the pKd ([5]; Experiment 1, read-out: Kd) was 4.37. The “Percent bound at various 16742 conc” value ([5]; Experiment 2, 1.87 μM 16742) was 1.55%, the “Percent bound at various 16742 conc” value ([5]; Experiment 2, 8.74 μM 16742) was 7.91% and the “Percent bound at various 16742 conc” value ([5]; Experiment 2, 52 μM 16742) was 48.34%. For the same compound, the pKd ([5]; Experiment 2, read-out: Kd) was 4.22, the pKd ([5]; average of two experiments, read-out: Kd Avg) was 4.29 and the “Percent bound at various 16742 conc” value ([6]; Experiment 1, 1.87 μM 16742) was 0.55%. For the same compound, the “Percent bound at various 16742 conc” value ([6]; Experiment 1, 8.74 μM 16742) was 9.59%, the “Percent bound at various 16742 conc” value ([6]; Experiment 1, 52 μM 16742) was 51.63% and the “Percent bound at various 16742 conc” value ([6]; Experiment 2, 52 μM 16742) was 62.29%. It also gave a pKd ([6]; single Kd value, obtained from only one experiment) of 4.27.
